Laboratory results published in BindingDB's records for doi:10.1021/jm00003a020 (University of Washington, 1995).

assay: Inhibitory concentration was determined against delta-opioid receptor using [3H]- DPDPE radioligand

| SMILES | IC50 [nM] |
| --- | --- |
| Oc1ccc2c3c1O[C@H]1[C@H](OCc4ccccc4CN=C=S)CC[C@@]4(O)C(C2)N(CC2CC2)CCC314 (stereo partly drawn) [4-cyclopropylmethyl-14-(2-isothiocyanatomethylbenzyloxy)-(1S,13R,14R,17S)-12-oxa-4-azapentacyclo[9.6.1.01,13.05,17.07,18]octadeca-7,9,11(18)-triene-10,17-diol(o-CH2NCS)] | 22 |
| Oc1ccc2c3c1O[C@H]1[C@H](OCc4cccc(N=C=S)c4)CC[C@@]4(O)C(C2)N(CC2CC2)CCC314 (stereo partly drawn) [4-cyclopropylmethyl-14-(3-isothiocyanatobenzyloxy)-(1S,13R,14R,17S)-12-oxa-4-azapentacyclo[9.6.1.01,13.05,17.07,18]octadeca-7,9,11(18)-triene-10,17-diol(m-NCS)] | 6.5 |
| Oc1ccc2c3c1O[C@H]1[C@H](OCc4ccc(N=C=S)cc4)CC[C@@]4(O)C(C2)N(CC2CC2)CCC314 (stereo partly drawn) [4-cyclopropylmethyl-14-(4-isothiocyanatobenzyloxy)-(1S,13R,14R,17S)-12-oxa-4-azapentacyclo[9.6.1.01,13.05,17.07,18]octadeca-7,9,11(18)-triene-10,17-diol(p-NCS)] | 35 |
| Oc1ccc2c3c1O[C@H]1[C@H](OCc4cccc(CN=C=S)c4)CC[C@@]4(O)C(C2)N(CC2CC2)CCC314 (stereo partly drawn) [4-cyclopropylmethyl-14-(3-isothiocyanatomethylbenzyloxy)-(1S,13R,14R,17S)-12-oxa-4-azapentacyclo[9.6.1.01,13.05,17.07,18]octadeca-7,9,11(18)-triene-10,17-diol(m-CH2NCS)] | 12 |
| Oc1ccc2c3c1O[C@H]1[C@H](OCc4ccccc4N=C=S)CC[C@@]4(O)C(C2)N(CC2CC2)CCC314 (stereo partly drawn) [4-cyclopropylmethyl-14-(2-isothiocyanatobenzyloxy)-(13R,14R,17S)-12-oxa-4-azapentacyclo[9.6.1.01,13.05,17.07,18]octadeca-7,9,11(18)-triene-10,17-diol(o-NCS)] | 1.8 |
